Patent EP0639584B1, “Preparation and screening of highly diverse peptide libraries for binding activity” (INTERPHARM LABORATORIES LTD., priority 1993, dated 1995)
One block for each substance: values may come before it.

How the values were obtained:
TBP1 = biological target: T1, TBP1 (Homo sapiens, UniProt P19438); test: Binding of TBP1 to peptides on beads, ELISA with soluble substrate (pNPP, O.D. at 405 nm)
T1 construct: soluble extracellular domain of TNF receptor type 1, p55; host or cells: CHO
T1 sequence (P19438 41-201 limits assumed): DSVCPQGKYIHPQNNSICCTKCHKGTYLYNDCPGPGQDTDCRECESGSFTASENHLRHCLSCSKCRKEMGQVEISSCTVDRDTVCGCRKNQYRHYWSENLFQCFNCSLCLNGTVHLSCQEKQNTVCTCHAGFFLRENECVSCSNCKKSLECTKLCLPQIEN

rabbit immunoglobulins = test: Immunostaining of library beads containing N-DSer-DLys-LVal to verify specificity; assay type: binding
Protocol: 7. First screening of the polystyrene peptide library with TBP1. One quarter (400 µl packed) of the total number of beads were blocked with 5% FBS in PBS (1 ml for 45 minutes), to avoid nonspecific binding, and incubated with TBP1 (1 ml at a concentration of 10µg/ml in FBS/PBS for 45 minutes) followed by polyclonal rabbit anti-TBP1 (1:500 in FBS/PBS, 1 ml for 1 hour) and alkaline phosphatase conjugated goat anti-rabbit Ig antibodies (1:2000 in FBS/PBS, 1 ml for 40 minutes). The signal was generated by BCIP/NBT substrate (12 ml in 9 cm petri dish; further details as in 5 above). More than 50 stained beads were selected and three of them were subjected to sequencing. […] The BCIP/NBT substrate that we used in order to stain the beads could not be destained by any treatment that we tried (organic solvents, urea, SDS, NaOH, boiling, sonication and combinations of all of the above), and we therefore decided to use another alkaline phosphatase substrate which could be readily destained. […]

[1] = tested on: Immunoglobulins from other animal species and from humans; test: Immunostaining of library beads containing N-DSer-DLys-LVal to verify specificity, other immunoglobulins; assay type: binding
[2] = tested on: Monoclonal antibody to human β-endorphin; test: Staining of beads with anti-endorphin McAb clone 3-E7 (alkaline phosphatase/BCIP); assay type: binding, mouse; details: antibody 200 ng/ml, BCIP 2 hours
Protocol: Staining of the beads was performed using the following steps (all incubation steps were performed with continuous mixing of the beads): • a. Washes of the beads with wash buffer. • b. Incubation of the beads with blocking buffer for 45 minutes to block non-specific interactions. • c. Incubation of the beads with the monoclonal antibody to human β-endorphin diluted to 200 ng/ml in blocking buffer for 40 minutes. • d. Six washes with wash buffer. • e. Incubation of the beads with the polyclonal rabbit antibodies against mouse IgG conjugated with alkaline phosphatase, diluted 1:1000 in blocking buffer for 40 minutes. • f. Six washes with wash buffer and one wash with Tris (25mM), NaC1 (125 mM), Tween (0.1%). • g. Incubation of the beads with BCIP diluted to 500 ug/ml in 0.1M Tris pH 9.0, for 2 hours. • h. Two washes with H2O, transfer of the beads to petri dishes and observation for blue stained beads (using a stereomicroscope).

- OD (TBP1; relative to background, peptide on around 100,000 beads, soluble substrate): ten times higher than background
- OD in presence of the TBP1 (TBP1; relative to the antibodies only): four times higher
- response with antibodies alone (TBP1; without TBP1): lack of response
Substance: N-DAla-DGlu-LMet

Substance: N-DSer-DLys-LVal
- recognition of rabbit immunoglobulins (rabbit immunoglobulins; from both rabbit anti-TBP1 antiserum and normal rabbit serum): specifically recognized
- Immunostaining performed with and without TBP1 (rabbit immunoglobulins; surface staining): specificity to the antibodies
- recognition of immunoglobulins from other animal species and from humans [1]: not recognized

- Number of Blue-stained Beads [2]: none of the beads
Substance: n-His-Pro-Tyr-Pro-Pro (HPYPP; on TentaGel beads; printed: His-Pro-Tyr-Pro-Pro) [Model HPYPP]

Substance: n-Tyr-Gly-Gly-Phe-Leu [Model YGGFL]
- Number of Blue-stained Beads [2]: most of the beads
